Patent publication US20230017045A1, “PYRIDINE AND PYRIMIDINE CARBOXYLATE HERBICIDES AND METHODS OF USE THEREOF” (Dow AgroSciences LLC, priority 2017, published 2023)

These molecules were tested on test plant species (assay: Post-emergent herbicidal activity test (greenhouse, foliar spray, visual growth reduction)). Settings: post-emergence, 336 h, ALOMY: blackgrass (Alopecurus myosuroides), 140 g ai/ha, 14 days after application, read-out: Visual Growth Reduction (%) 14 Days After Application, ALOMY.
Type: in vivo
Method in brief: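 Scoring used a 0 to 100 percent visual scale of growth reduction against solvent-treated controls, read 14 d after spraying. Applications went onto plants at first or second true leaf stage, 187 L/ha, with crop oil concentrate and X-77 surfactant in the carrier. Post-treatment watering was by subirrigation to avoid wash-off.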

Row | SMILES | pest or weed control at 140 g/ha
1 | COC(=O)c1nc(-c2ccc(C(F)(F)F)c(Br)c2Cl)ccc1Cl [F140, methyl 6-(3-bromo-2-chloro-4-(trifluoromethyl)phenyl)-3-chloropicolinate] | 0 to 29%
2 | COC(=O)c1nc(-c2ccc(C(F)(F)F)cc2Cl)c(C)cc1Cl [F5] | 0 to 29%

Same assay, conditions: post-emergence, 336 h, AMARE: redroot pigweed (Amaranthus retroflexus), 140 g ai/ha, 14 days after application, read-out: Visual Growth Reduction (%) 14 Days After Application, AMARE

Row | SMILES | pest or weed control at 140 g/ha
3 | COC(=O)c1nc(-c2ccc(C(F)(F)F)c(Br)c2Cl)ccc1Cl [F140, methyl 6-(3-bromo-2-chloro-4-(trifluoromethyl)phenyl)-3-chloropicolinate] | 85 to 94%
4 | COC(=O)c1nc(-c2ccc(C(F)(F)F)cc2Cl)c(C)cc1Cl [F5] | 0 to 29%

Same assay, conditions: post-emergence, 336 h, AVEFA: wild oat (Avena fatua), 140 g ai/ha, 14 days after application, read-out: Visual Growth Reduction (%) 14 Days After Application, AVEFA

Row | SMILES | pest or weed control at 140 g/ha
5 | COC(=O)c1nc(-c2ccc(C(F)(F)F)c(Br)c2Cl)ccc1Cl [F140, methyl 6-(3-bromo-2-chloro-4-(trifluoromethyl)phenyl)-3-chloropicolinate] | 0 to 29%
6 | COC(=O)c1nc(-c2ccc(C(F)(F)F)cc2Cl)c(C)cc1Cl [F5] | 0 to 29%

Same assay, conditions: post-emergence, 336 h, CHEAL: lambsquarters (Chenopodium album), 140 g ai/ha, 14 days after application, read-out: Visual Growth Reduction (%) 14 Days After Application, CHEAL

Row | SMILES | pest or weed control at 140 g/ha
7 | COC(=O)c1nc(-c2ccc(C(F)(F)F)c(Br)c2Cl)ccc1Cl [F140, methyl 6-(3-bromo-2-chloro-4-(trifluoromethyl)phenyl)-3-chloropicolinate] | 85 to 94%
8 | COC(=O)c1nc(-c2ccc(C(F)(F)F)cc2Cl)c(C)cc1Cl [F5] | 45 to 59%

Same assay, conditions: post-emergence, 336 h, CIRAR: canada thistle (Cirsium arvense), 140 g ai/ha, 14 days after application, read-out: Visual Growth Reduction (%) 14 Days After Application, CIRAR

Row | SMILES | pest or weed control at 140 g/ha
9 | COC(=O)c1nc(-c2ccc(C(F)(F)F)c(Br)c2Cl)ccc1Cl [F140, methyl 6-(3-bromo-2-chloro-4-(trifluoromethyl)phenyl)-3-chloropicolinate] | 45 to 59%
10 | COC(=O)c1nc(-c2ccc(C(F)(F)F)cc2Cl)c(C)cc1Cl [F5] | 0 to 29%

Same assay, conditions: post-emergence, 336 h, CYPES: yellow nutsedge (Cyperus esculentus), 140 g ai/ha, 14 days after application, read-out: Visual Growth Reduction (%) 14 Days After Application, CYPES

Row | SMILES | pest or weed control at 140 g/ha
11 | COC(=O)c1nc(-c2ccc(C(F)(F)F)c(Br)c2Cl)ccc1Cl [F140, methyl 6-(3-bromo-2-chloro-4-(trifluoromethyl)phenyl)-3-chloropicolinate] | 0 to 29%
12 | COC(=O)c1nc(-c2ccc(C(F)(F)F)cc2Cl)c(C)cc1Cl [F5] | 30 to 44%

Same assay, conditions: post-emergence, 336 h, DIGSA: crabgrass (Digitaria sanguinalis), 140 g ai/ha, 14 days after application, read-out: Visual Growth Reduction (%) 14 Days After Application, DIGSA

Row | SMILES | pest or weed control at 140 g/ha
13 | COC(=O)c1nc(-c2ccc(C(F)(F)F)c(Br)c2Cl)ccc1Cl [F140, methyl 6-(3-bromo-2-chloro-4-(trifluoromethyl)phenyl)-3-chloropicolinate] | 85 to 94%
14 | COC(=O)c1nc(-c2ccc(C(F)(F)F)cc2Cl)c(C)cc1Cl [F5] | 0 to 29%

Same assay, conditions: post-emergence, 336 h, ECHCG: barnyardgrass (Echinochloa crus-galli), 140 g ai/ha, 14 days after application, read-out: Visual Growth Reduction (%) 14 Days After Application, ECHCG

Row | SMILES | pest or weed control at 140 g/ha
15 | COC(=O)c1nc(-c2ccc(C(F)(F)F)c(Br)c2Cl)ccc1Cl [F140, methyl 6-(3-bromo-2-chloro-4-(trifluoromethyl)phenyl)-3-chloropicolinate] | 0 to 29%

Same assay, conditions: post-emergence, 336 h, IPOHE: ivy-leaf morning glory (Ipomoea hederacea), 140 g ai/ha, 14 days after application, read-out: Visual Growth Reduction (%) 14 Days After Application, IPOHE

Row | SMILES | pest or weed control at 140 g/ha
16 | COC(=O)c1nc(-c2ccc(C(F)(F)F)c(Br)c2Cl)ccc1Cl [F140, methyl 6-(3-bromo-2-chloro-4-(trifluoromethyl)phenyl)-3-chloropicolinate] | 95 to 100%

Same assay, conditions: post-emergence, 336 h, KCHSC: kochia (Bassia scoparia), 140 g ai/ha, 14 days after application, read-out: Visual Growth Reduction (%) 14 Days After Application, KCHSC

Row | SMILES | pest or weed control at 140 g/ha
17 | COC(=O)c1nc(-c2ccc(C(F)(F)F)c(Br)c2Cl)ccc1Cl [F140, methyl 6-(3-bromo-2-chloro-4-(trifluoromethyl)phenyl)-3-chloropicolinate] | 0 to 29%

Same assay, conditions: post-emergence, 336 h, ORYSA: rice (Oryza sativa), 140 g ai/ha, 14 days after application, read-out: Visual Growth Reduction (%) 14 Days After Application, ORYSA

Row | SMILES | pest or weed control at 140 g/ha
18 | COC(=O)c1nc(-c2ccc(C(F)(F)F)c(Br)c2Cl)ccc1Cl [F140, methyl 6-(3-bromo-2-chloro-4-(trifluoromethyl)phenyl)-3-chloropicolinate] | 0 to 29%

Same assay, conditions: post-emergence, 336 h, SETFA: giant foxtail (Setaria faberi), 140 g ai/ha, 14 days after application, read-out: Visual Growth Reduction (%) 14 Days After Application, SETFA

Row | SMILES | pest or weed control at 140 g/ha
19 | COC(=O)c1nc(-c2ccc(C(F)(F)F)c(Br)c2Cl)ccc1Cl [F140, methyl 6-(3-bromo-2-chloro-4-(trifluoromethyl)phenyl)-3-chloropicolinate] | 75 to 84%

Same assay, conditions: post-emergence, 336 h, SORVU: grain sorghum (Sorghum vulgare), 140 g ai/ha, 14 days after application, read-out: Visual Growth Reduction (%) 14 Days After Application, SORVU

Row | SMILES | pest or weed control at 140 g/ha
20 | COC(=O)c1nc(-c2ccc(C(F)(F)F)c(Br)c2Cl)ccc1Cl [F140, methyl 6-(3-bromo-2-chloro-4-(trifluoromethyl)phenyl)-3-chloropicolinate] | 85 to 94%

Same assay, conditions: post-emergence, 336 h, STEME: common chickweed (Stellaria media), 140 g ai/ha, 14 days after application, read-out: Visual Growth Reduction (%) 14 Days After Application, STEME

Row | SMILES | pest or weed control at 140 g/ha
21 | COC(=O)c1nc(-c2ccc(C(F)(F)F)c(Br)c2Cl)ccc1Cl [F140, methyl 6-(3-bromo-2-chloro-4-(trifluoromethyl)phenyl)-3-chloropicolinate] | 0 to 29%

Same assay, conditions: post-emergence, 336 h, TRZAS: wheat, spring (Triticum aestivum), 140 g ai/ha, 14 days after application, read-out: Visual Growth Reduction (%) 14 Days After Application, TRZAS

Row | SMILES | pest or weed control at 140 g/ha
22 | COC(=O)c1nc(-c2ccc(C(F)(F)F)c(Br)c2Cl)ccc1Cl [F140, methyl 6-(3-bromo-2-chloro-4-(trifluoromethyl)phenyl)-3-chloropicolinate] | 0 to 29%

Same assay, conditions: post-emergence, 336 h, barnyardgrass (Echinochloa crus-galli), 14 Days After Application, 140 g ai/ha, read-out: Visual Growth Reduction (%) ECHCG

Row | SMILES | pest or weed control at 140 g/ha
23 | COC(=O)c1nc(-c2ccc(C(F)(F)F)cc2Cl)c(C)cc1Cl [F5] | 0 to 29%

Same assay, conditions: post-emergence, 336 h, giant foxtail (Setaria faberi), 14 Days After Application, 140 g ai/ha, read-out: Visual Growth Reduction (%) SETFA

Row | SMILES | pest or weed control at 140 g/ha
24 | COC(=O)c1nc(-c2ccc(C(F)(F)F)cc2Cl)c(C)cc1Cl [F5] | 0 to 29%

Same assay, conditions: post-emergence, 336 h, ivy-leaf morning glory (Ipomoea hederacea), 14 Days After Application, 140 g ai/ha, read-out: Visual Growth Reduction (%) IPOHE

Row | SMILES | pest or weed control at 140 g/ha
25 | COC(=O)c1nc(-c2ccc(C(F)(F)F)cc2Cl)c(C)cc1Cl [F5] | 30 to 44%

Same assay, conditions: post-emergence, 336 h, johnsongrass (Sorghum vulgare), 14 Days After Application, 140 g ai/ha, read-out: Visual Growth Reduction (%) SORVU

Row | SMILES | pest or weed control at 140 g/ha
26 | COC(=O)c1nc(-c2ccc(C(F)(F)F)cc2Cl)c(C)cc1Cl [F5] | 30 to 44%

Same assay, conditions: post-emergence, 336 h, kochia (Bassia scoparia), 14 Days After Application, 140 g ai/ha, read-out: Visual Growth Reduction (%) KCHSC

Row | SMILES | pest or weed control at 140 g/ha
27 | COC(=O)c1nc(-c2ccc(C(F)(F)F)cc2Cl)c(C)cc1Cl [F5] | 30 to 44%

Same assay, conditions: post-emergence, 336 h, rice (Oryza sativa), 14 Days After Application, 140 g ai/ha, read-out: Visual Growth Reduction (%) ORYSA

Row | SMILES | pest or weed control at 140 g/ha
28 | COC(=O)c1nc(-c2ccc(C(F)(F)F)cc2Cl)c(C)cc1Cl [F5] | 0 to 29%

Same assay, conditions: post-emergence, 336 h, wheat, spring (Triticum aestivum), 14 Days After Application, 140 g ai/ha, read-out: Visual Growth Reduction (%) TRZAS

Row | SMILES | pest or weed control at 140 g/ha
29 | COC(=O)c1nc(-c2ccc(C(F)(F)F)cc2Cl)c(C)cc1Cl [F5] | 0 to 29%
